Laboratory results published in patent US6410556B1, “Modulators of protein tyrosine phosphateses (PTPases)” (Novo Nordisk A/S, priority 1999, dated 2002).

These compounds were tested against T1, truncated form of PTP1B (first 321 amino acids) (Homo sapiens, UniProt P18031) (assay: Inhibition of PTP1B, p-nitrophenyl phosphate substrate, enzyme kinetic analysis). Conditions: truncated PTP1B expressed in E. coli; substrate p-nitrophenyl phosphate 0.16 to 10 mM; 50 mM HEPES pH 7.0; 25° C., 60 minutes.
T1 construct: a truncated form of PTPI B (corresponding to the first 321 amino acids); made in house; host or cells: E. coli
T1 sequence (P18031 1-321 limits assumed): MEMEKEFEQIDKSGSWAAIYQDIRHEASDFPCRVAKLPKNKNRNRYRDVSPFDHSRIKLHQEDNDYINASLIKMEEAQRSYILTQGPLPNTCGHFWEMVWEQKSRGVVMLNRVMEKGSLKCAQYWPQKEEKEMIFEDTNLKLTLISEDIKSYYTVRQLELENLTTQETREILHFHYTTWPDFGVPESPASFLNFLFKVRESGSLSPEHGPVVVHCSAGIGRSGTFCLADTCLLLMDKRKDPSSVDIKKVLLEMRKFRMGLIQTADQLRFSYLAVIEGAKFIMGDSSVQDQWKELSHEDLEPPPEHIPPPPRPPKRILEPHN
Type: biochemical
Procedure: The compounds are evaluated for biological activity with a truncated form of PTPI B (corresponding to the first 321 amino acids), which was expressed in E. coli and purified to apparent homogeneity using published procedures well-known to those skilled in the art. The enzyme reactions are carried out using standard conditions essentially as described by Burke et al. (Biochemistry 35; 15989-15996 (1996)). The assay conditions are as follows. Appropriate concentrations of the compounds of the invention are added to the reaction mixtures containing different concentrations of the substrate, p-nitrophenyl phosphate (range: 0.16 to 10 mM—final assay concentration). The buffer used was 50 mM HEPES pH 7.0, 100 mM sodium chloride, 0.1% (w/v) bovine serum albumin, 5 mM glutathione, and 1 mM EDTA. The reaction was started by addition of the enzyme and carried out in microtiter plates at 25° C. for 60 minutes. The reactions are stopped by addition of NaOH. The enzyme activity was determined by measurement of the absorbance at 405 nm with appropriate corrections for absorbance at 405 nm of the compounds and p-nitrophenyl phosphate. The data are analyzed using nonlinear regression fit to classical Michaelis Menten enzyme kinetic models. Inhibition is expressed as Ki values in nM.

Ki | Structure (SMILES)
250 nM | O=C(O)C(=O)Nc1sc2c(c1C(=O)O)CC(CN1Cc3c(O)cccc3C1=O)NC2 (stereo not shown) [Example 8, 5-(4-Hydroxy-1-oxo-1,3-dihydro-isoindol-2-ylmethyl)-2-(oxalyl-amino)-4,5,6,7-tetrahydro-thieno[2,3-c]pyridine-3-carboxylic acid]
270 nM | O=C(O)C(=O)Nc1sc2c(c1C(=O)O)CC(CNC1=NS(=O)(=O)c3ccccc31)NC2 (stereo not shown) [Example 10, 5-((1,1-Dioxo-1H-benzo[d]isothiazol-3-ylamino)methyl)-2-(oxalyl-amino)-4,5,6,7-tetrahydro-thieno[2,3-c]pyridine-3-carboxylic acid]
240 nM | O=C(O)C(=O)Nc1sc2c(c1C(=O)O)CCNC2CNC1=NS(=O)(=O)c2ccccc21 (stereo not shown) [Example 11, 7-((1,1-Dioxo-1H-benzo[d]isothiazol-3-ylamino)methyl)-2-(oxalyl-amino)-4,5,6,7-tetrahydro-thieno[2,3-c]pyridine-3-carboxylic acid]
570 nM | COc1cccc2c1C(=O)N(CC1Cc3c(sc(NC(=O)C(=O)O)c3C(=O)O)CN1)C2 (stereo not shown) [Example 12, 5-(7-Methoxy-1-oxo-1,3-dihydro-isoindol-2-ylmethyl)-2-(oxalyl-amino)-4,5,6,7-tetrahydro-thieno[2,3-c]pyridine-3-carboxylic acid]
830 nM | O=C(O)C(=O)Nc1sc2c(c1C(=O)O)CC(CNC(=O)C(=O)c1c[nH]c3ccccc13)NC2 (stereo not shown) [Example 36, 5-((2-(1H-indol-3-yl)-2-oxo-acetylamino)methyl)-2-(Oxalyl-amino)-4,5,6,7-tetrahydro-thieno[2,3-c]pyridine-3-carboxylic acid]
220 nM | CC(=O)N(Cc1ccc(Oc2ccccc2)cc1)C[C@@H]1NCCc2c1sc(NC(=O)C(=O)O)c2C(=O)O [Example 42, 7-(S)-((Acetyl-(4-phenoxy-benzyl)amino)methyl)-2-(oxalyl-amino)-4,5,6,7-tetrahydro-thieno[2,3-c]pyridine-3-carboxylic acid]
300 nM | COC(=O)c1cc(OC)cc2c1CN(CC1Cc3c(sc(NC(=O)C(=O)O)c3C(=O)O)CN1)C2=O (stereo not shown) [Example 46, 5-(6-Methoxy-4-methoxycarbonyl-1-oxo-1 ,3-dihydro-isoindol-2-ylmethyl)-2-(oxalyl-amino)-4,5,6,7-tetrahydro-thieno[2,3-c]pyridine-3-carboxylic acid]
